In patent publication US11912695B2, “Benzodiazepine derivatives as RSV inhibitors” (ENANTA PHARMACEUTICALS, INC., priority 2019, dated 2024):

Assays:
[1] = tested on: Human RSV-A (“Long” strain); assay: RSV-A assay (CPE, ATPlite) in Hep-2 cells; format: cell-based; settings: human respiratory syncytial virus, 120 h, MOI 0.1, 5-day incubation, ATPlite readout
Text: Hep-2 cells, (originally derived from tumors grown in irradiated-cortisonised weanling rats that had been injected with epidermoid carcinoma tissue from a person's larynx, but later found to be indistinguishable from HeLa cells by PCR DNA analysis), were used for the culturing of genotype A, “Long” strain RSV. Flasks were inoculated with RSV and viral stocks were collected once cytopathic effect (CPE) was greater than 90%. Viral stocks in 25% sucrose media were snap frozen using liquid nitrogen to increase viral stability. Viral stock titers were quantified by tissue culture infectious dose 50% (TCID50) using 8,000 cells per well and 3-fold viral dilutions across a 96-well plate, cultured for 4 days. Viral stock titers were also quantified by a plaque forming unit assay, as described elsewhere.
Following extensive parameter testing, the final assay is run as follows: Hep-2 cells are seeded into the inner 60 wells of a 96-well plate at 8,000 cells per well in a volume of 50 μL using Growth Media (DMEM without phenol red, 1% L-Glut, 1% Penn/Strep, 1% nonessential amino acids, 10% heat-inactivated FBS). 2-fold serial dilutions of control and test compounds are added to the wells in duplicate in a total volume of 25 μL. Viral stock is then added to the wells at a multiplicity of infection (MOI) of 0.1 in a volume of 25 μL, bringing the total volume of each well to 100 μL. The MOI is calculated using the PFU/mL, or TCID50 if unavailable. Each 96-well plate has a control column of 6 wells with cells and virus but no compound (negative control, max CPE), a column with cells but no compound or virus (positive control, minimum CPE), and a column with no cells or virus or compound (background plate/reagent control). The control wells with cells but no virus are given an additional 25 μL of growth media containing an equal quantity of sucrose as those wells receiving the viral stock in order to keep consistent in media and volume conditions. The outer wells of the plate are filled with 125 μL of moat media (DMEM, 1% Penn/Strep) to act as a thermal and evaporative moat around the test wells. Following a 5-day incubation period, the plates are read using ATPlite (50 μL added per well), which quantifies the amount of ATP (a measure of cell health) present in each well. Assay plates are read using the Envision luminometer. In parallel, cytotoxicity is examined on an additional 96-well plate treated in an identical manner, but substituting the 25 μL of viral stock for 25 μL of growth media. […] EC50 ranges are as follows: A<0.4 μM; B 0.4-0.8 μM; C>0.8 μM.

[2] = tested on: Human RSV-B (genotype B, strain 9320); assay: RSV-B assay (qPCR or ATPlite) in A549 cells; format: cell-based; settings: human respiratory syncytial virus, 144 h, strain 9320, MOI 0.5, 6 days post infection, qPCR or ATPlite readout
Text: Hep-2 cells, (originally derived from tumors grown in irradiated-cortisonised weanling rats that had been injected with epidermoid carcinoma tissue from a person's larynx, but later found to be indistinguishable from HeLa cells by PCR DNA analysis), were used for the culturing of genotype B, strain 9320. Flasks were inoculated with RSV-B and viral stocks were collected once cytopathic effect (CPE) was greater than 90%. Viral stocks in 25% sucrose media were snap frozen using liquid nitrogen to increase viral stability. Viral stock titers were quantified by tissue culture infectious dose 50% (TCID50) using 8,000 cells per well and 5-fold viral dilutions across a 96-well plate, cultured for 4 days. Viral stock titers were also quantified by a plaque forming unit assay, as described elsewhere.
The assay is run as follows: A549 cells (originally derived through explant culture from a person's carcinomatous lung tissue) are seeded into the inner 60 wells of a 96-well plate at 3,000 cells per well in a volume of 50 μL using A549 growth media (F-12K Media, 1% Penn/Strep, 1% nonessential amino acids, 10% heat-inactivated FBS). 2-fold serial dilutions of control and test compounds are added to the wells in duplicate in a total volume of 25 μL. Viral stock is then added to the wells at a multiplicity of infection (MOI) of 0.5 in a volume of 25 μL, bringing the total volume of each well to 100 μL. The MOI is calculated using the PFU/mL, or TCID50 if unavailable. Each 96-well plate has a control column of 6 wells with cells and virus but no compound (negative control, max CPE), a column with cells but no compound or virus (positive control, minimum CPE), and a column with no cells or virus or compound (background plate/reagent control). The control wells with cells but no virus are given an additional 25 μL of growth media containing an equal quantity of sucrose as those wells receiving the viral stock in order to keep consistent in media and volume conditions. The outer wells of the plate are filled with 125 μL of moat media (DMEM, 1% Penn/Strep) to act as a thermal and evaporative moat around the test wells. 6 days post infection, the plates are read using qPCR or ATP lite (50 μL added per well), which quantifies the amount of ATP (a measure of cell health) present in each well. Assay plates treated with APTlite are read using the Envision luminometer. […] EC50 ranges are as follows: A<0.4 μM; B 0.4-0.8 μM; C>0.8 μM.

| SMILES | EC50 [1] | EC50 [2] |
| --- | --- | --- |
| CCc1ncc(-c2sc(C3(C(F)(F)F)CC3)nc2-c2nnc(N[C@H]3N=C(c4ccccc4)c4ccccc4NC3=O)o2)cn1 [Example 71] | < 400 nM | < 400 nM |
| CCc1ncc(-c2sc(C3CC3)nc2-c2nnc(N[C@H]3N=C(c4ccccc4)c4ccccc4NC3=O)o2)cn1 [Example 50] | < 400 nM | < 400 nM |
| COc1ncc(-c2cc(C(F)(F)F)cnc2-c2nnc(NC3N=C(c4ccccc4)c4ccccc4NC3=O)o2)cn1 (stereo not shown) [Example 3] | 400 to 800 nM | 400 to 800 nM |
| Cc1ncc(-c2sc(C3CC3)nc2-c2nnc(N[C@@H]3N=C(c4ccccc4)c4cccc(F)c4NC3=O)o2)cn1 [Example 55] | > 800 nM | < 400 nM |
| CCc1ncc(-c2sc(C(F)(F)F)nc2-c2nnc(NC3N=C(c4ccccc4)c4ccccc4NC3=O)o2)cn1 (stereo not shown) [Example 35] | < 400 nM | < 400 nM |
| CCc1ncc(-c2sc(C3(C)CC3)nc2-c2nnc(N[C@@H]3N=C(c4ccccc4)c4cccc(F)c4NC3=O)o2)cn1 [Example 68] | < 400 nM | < 400 nM |
| CCc1ncc(-c2sc(C(F)(F)F)nc2-c2nnc(N[C@H]3N=C(c4ccccc4)c4cccc(F)c4NC3=O)o2)cn1 [Example 32] | < 400 nM | < 400 nM |
| O=C1Nc2ccccc2C(c2ccccc2)=N[C@@H]1Nc1nnc(-c2ncc(C(F)F)cc2-c2cnc(C3CC3)nc2)o1 [Example 98] | < 400 nM | < 400 nM |
| Cc1nc(-c2nnc(N[C@H]3N=C(c4ccccc4)c4cccc(F)c4NC3=O)o2)c(-c2cnc(C3CC3)nc2)s1 [Example 41] | < 400 nM | < 400 nM |
| O=C1Nc2ccccc2C(c2ccccc2)=NC1Nc1nnc(-c2cccnc2-c2cnc(C3CC3)nc2)o1 (stereo not shown) [Example 23] | > 800 nM | < 400 nM |
| CCc1ncc(-c2sc(C3(C(F)(F)F)CC3)nc2-c2nnc(N[C@H]3N=C(c4ccccc4)c4cccc(F)c4NC3=O)o2)cn1 [Example 63] | < 400 nM | < 400 nM |
| C=Cc1ncc(-c2cc(C(F)(F)F)cnc2-c2nnc(NC3N=C(c4ccccc4)c4ccccc4NC3=O)o2)cn1 (stereo not shown) [Example 18] | 400 to 800 nM | < 400 nM |
| Cc1ncc(-c2sc(C3CCC3)nc2-c2nnc(N[C@@H]3N=C(c4ccccc4)c4cccc(F)c4NC3=O)o2)cn1 [Example 60] | < 400 nM | < 400 nM |
| O=C1Nc2ccccc2C(c2ccccc2)=NC1Nc1nnc(-c2ncc(C(F)(F)F)cc2-c2cncnc2)o1 (stereo not shown) [Example 2] | > 800 nM | > 800 nM |
| O=C1Nc2ccccc2C(c2ccccc2)=NC1Nc1nnc(-c2ncccc2-c2cnc(C3CC3)nc2)o1 (stereo not shown) [Example 16] | 400 to 800 nM | < 400 nM |
| Cc1ncc(-c2sc(C)nc2-c2nnc(N[C@H]3N=C(c4ccccc4)c4cccc(F)c4NC3=O)o2)cn1 [Example 39] | < 400 nM | < 400 nM |
| CCc1ncc(-c2sc(C3CCC3)nc2-c2nnc(N[C@H]3N=C(c4ccccc4)c4cccc(F)c4NC3=O)o2)cn1 [Example 58] | < 400 nM | < 400 nM |
| O=C1Nc2ccccc2C(c2ccccc2)=NC1Nc1nnc(-c2ncc(C(F)(F)F)cc2-c2cnc(C(F)(F)F)nc2)o1 (stereo not shown) [Example 10] | > 800 nM | > 800 nM |
| O=C1Nc2ccccc2C(c2ccccc2)=NC1Nc1nnc(-c2ncc(C(F)(F)F)cc2-c2cnc(F)nc2)o1 (stereo not shown) [Example 17] | > 800 nM | > 800 nM |
| Cc1ncc(-c2sc(C3(C)CC3)nc2-c2nnc(N[C@H]3N=C(c4ccccc4)c4cccc(F)c4NC3=O)o2)cn1 [Example 67] | < 400 nM | < 400 nM |

| SMILES | EC50 [1] | EC50 [2] |
| --- | --- | --- |
| N#Cc1ncc(-c2cc(C(F)(F)F)cnc2-c2nnc(NC3N=C(c4ccccc4)c4ccccc4NC3=O)o2)cn1 (stereo not shown) [Example 5] | > 800 nM |  |
| CCc1ncc(-c2cc(C(F)(F)F)cnc2-c2nnc(N[C@H]3N=C(c4ccccc4)c4ccccc4NC3=O)o2)cn1 [Example 29] | < 400 nM | < 400 nM |
| Cc1ncc(-c2sc(C)nc2-c2nnc(N[C@@H]3N=C(c4ccccc4)c4cccc(F)c4NC3=O)o2)cn1 [Example 38] | < 400 nM | < 400 nM |
| Cc1ncc(-c2cc(C(F)(F)F)cnc2-c2nnc(N[C@H]3N=C(c4ccccc4)c4cccc(F)c4NC3=O)o2)cn1 [Example 27] | < 400 nM | < 400 nM |
| CCc1ncc(-c2sc(C3CC3)nc2-c2nnc(N[C@H]3N=C(c4ccccc4)c4cccc(F)c4NC3=O)o2)cn1 [Example 43] | < 400 nM | < 400 nM |
| O=C1Nc2ccccc2C(c2ccccc2)=NC1Nc1nnc(-c2ncc(C(F)(F)F)cc2-c2cnc(NC3CC3)nc2)o1 (stereo not shown) [Example 20] | 400 to 800 nM | < 400 nM |
| O=C1Nc2ccccc2C(c2ccccc2)=NC1Nc1nnc(-c2nc(C(F)(F)F)sc2-c2cnc(C3CC3)nc2)o1 (stereo not shown) [Example 34] | < 400 nM | < 400 nM |
| CCc1ncc(-c2sc(C)nc2-c2nnc(N[C@H]3N=C(c4ccccc4)c4cccc(F)c4NC3=O)o2)cn1 [Example 36] | < 400 nM | < 400 nM |
| Cc1ncc(-c2cc(C(F)(F)F)cnc2-c2nnc(N[C@H]3N=C(c4ccccc4)c4ccccc4NC3=O)o2)cn1 [Example 26] | < 400 nM | < 400 nM |
| CCc1ncc(-c2sc(C3(C(F)(F)F)CC3)nc2-c2nnc(N[C@@H]3N=C(c4ccccc4)c4cccc(F)c4NC3=O)o2)cn1 [Example 62] | 400 to 800 nM | < 400 nM |
| O=C1Nc2c(F)cccc2C(c2ccccc2)=N[C@H]1Nc1nnc(-c2nc(C3CCC3)sc2-c2cnc(C3CC3)nc2)o1 [Example 64] | > 800 nM | < 400 nM |
| Cc1ncc(-c2sc(C(F)(F)F)nc2-c2nnc(NC3N=C(c4ccccc4)c4ccccc4NC3=O)o2)cn1 (stereo not shown) [Example 33] | < 400 nM | < 400 nM |
| Cc1ncc(-c2cc(C(F)(F)F)cnc2-c2nnc(NC3N=C(c4ccccc4)c4ccccc4NC3=O)o2)cn1 (stereo not shown) [Example 1] | < 400 nM | < 400 nM |
| O=C1Nc2ccccc2C(c2ccccc2)=N[C@@H]1Nc1nnc(-c2ccc(C(F)(F)F)nc2-c2cnc(C3CC3)nc2)o1 [Example 22] | 400 to 800 nM | < 400 nM |
| CCc1ncc(-c2sc(C(F)(F)F)nc2-c2nnc(N[C@@H]3N=C(c4ccccc4)c4cccc(F)c4NC3=O)o2)cn1 [Example 42] | < 400 nM | < 400 nM |
| O=C1Nc2ccccc2C(c2ccccc2)=NC1Nc1nnc(-c2ncc(C(F)(F)F)cc2-c2cnc(CO)nc2)o1 (stereo not shown) [Example 9] | > 800 nM | > 800 nM |
| CC(C)(F)c1ncc(-c2cc(C(F)(F)F)cnc2-c2nnc(NC3N=C(c4ccccc4)c4ccccc4NC3=O)o2)cn1 (stereo not shown) [Example 12] | > 800 nM | > 800 nM |
| CCc1ncc(-c2sc(C3CCC3)nc2-c2nnc(N[C@@H]3N=C(c4ccccc4)c4cccc(F)c4NC3=O)o2)cn1 [Example 59] | < 400 nM | < 400 nM |
| O=C1Nc2ccccc2C(c2ccccc2)=NC1Nc1nnc(-c2ncc(C(F)(F)F)cc2-c2cnc(CF)nc2)o1 (stereo not shown) [Example 6] | < 400 nM |  |
